Laboratory results published in patent US20260305620A1, “NOVEL INSECTICIDAL MIXTURES FOR CONTROLLING AND PROTECTING CROPS” (ADAMA MAKHTESHIM LTD., priority 2023, published 2026).
Like-named read-outs stand apart in the source and are kept apart here.

Tested on: Aphis gossypii
Test: Mortality of Aphis gossypii adults + progeny on sprayed pepper leaf disks; synergy/antagonism of garlic extract mixtures by Colby's formula
Assay type: in vivo, Aphis gossypii (cotton aphid)
Conditions: for mortality at 0.8 ppm: read-out: Mortality Observed, alone, 0.8 ppm ai; for mortality at 5 ppm: read-out: Mortality Observed, alone, 5 ppm ai; for mortality at 0.1 ppm: 0.1 ppm ai; for mortality at 0.2 ppm: 0.2 ppm ai
Protocol: Evaluating the synergistic or antagonistic effects of garlic extract and other insecticides on Aphis gossypii in pepper crop.
Pepper plants of Makko F1 cv, obtained from seeds, were grown at totally controlled conditions in a growing chamber. Healthy and untreated Pepper plants were used at least two months after seeding to get leaf disks suitable to be exposed to Aphis gossypii adults.
The aphids' adults were obtained from mass rearing; aphids were reared on cucumber and zucchini plants under controlled environmental conditions.
Suitable leaves were collected from pepper plants. Leaf disks were prepared together with arenas containing a layer of water agar on the base. 8 leaf disks per treatment were obtained from the collected leaves and 20 adults/arena were inoculated.
Each arena was sprayed, using an electric low pressure hand sprayer, with the corresponding insecticide mixture. Tween 80 surfactant, at the rate of 0.05% was added in each treatment mixture.
The untreated check was sprayed with distilled water together with Tween 80 surfactant at a dose of 0.05%.
The experimental arenas were kept in a growth chamber under controlled climatic conditions: 21° C. (±0.5), 60% RH and 16:8 light:dark photoperiod regime. The assessment of mortality (as % of died adults+progeny) was performed according to the characteristics of each Active Ingredient.
Garlic extract a) and the additional pesticide b) were priorly calibrated to obtain the Dose Response Curve and the Lethal Dose (ppm) values; according to the calibrations the mixing protocols were obtained at the proper mixing ratios.
All the statistical procedures [Student-Newman-Keuls (SNK), Dose response analysis (Probit, confidence level 95%) Anova and other calculation analysis] were performed using the ARM 2020.0 software.
The evaluation of Synergy or Antagonism of the two active ingredients was performed by using the Colby's formula, above described: […]
in which E represents the expected percentage of insecticidal control for the combination of the two insecticides at defined doses, A is the percentage of insecticidal control observed by the compound (I) at a defined dose (for example, a), B is the percentage of insecticidal control observed by the compound (II) at a defined dose (for example, b). When the ratio between the observed percentage of insecticidal control for the combination of the two insecticides at defined doses and the expected percentage of insecticidal control for the combination of the two insecticides at defined doses is greater than 1.15, the effect is synergistic.

[1] = Aphis gossypii, foliar, alone, read-out: Mortality Observed
[2] = Aphis gossypii, foliar, alone, 1 ppm ai, read-out: Mortality Observed
[3] = Aphis gossypii, foliar, alone, 2 ppm ai, read-out: Mortality Observed
[4] = Aphis gossypii, foliar, read-out: Mortality Observed, alone, 1 ppm ai

Q: What does the source list for FC(F)(F)c1ccc(COc2ncncc2C2OCCCO2)cc1 [Benzpyrimoxan, benzpyrimoxan]?
A: mortality at 0.8 ppm (Aphis gossypii, foliar): 8.2%; mortality at 5 ppm (Aphis gossypii, foliar): 42%

Q: Which results are given for N#Cc1nn(-c2c(Cl)cc(C(F)(F)F)cc2Cl)c(N)c1[S+]([O-])C(F)(F)F (stereo not shown) [Fipronil, fipronil]?
A: mortality at 0.1 ppm [1]: 35%; mortality at 0.5 ppm (Aphis gossypii, foliar, alone, 0.5 ppm ai, read-out: Mortality Observed): 43.2%

Q: With C/C(=N\C#N)N(C)Cc1ccc(Cl)nc1 [Acetamiprid, acetamiprid] as the compound, how does the mortality at 0.01 ppm (Aphis gossypii, foliar, alone, 0.01 ppm ai, read-out: Mortality Observed) read?
A: The mortality at 0.01 ppm was 48.9%.

Q: And the mortality at 0.05 ppm (Aphis gossypii, foliar, alone, 0.05 ppm ai, read-out: Mortality Observed)?
A: Its mortality at 0.05 ppm is 25%.

Q: And the mortality at 0.1 ppm [1]?
A: Its mortality at 0.1 ppm is 48.9%.

Q: Which results are given for C/C=C(\C)C(=O)O[C@H]1C[C@@H](OC(C)=O)[C@@]2(C(=O)OC)CO[C@H]3[C@@H](O)[C@@](C)([C@]45O[C@@]4(C)[C@H]4C[C@@H]5O[C@@H]5OC=C[C@@]54O)[C@H]4[C@]1(CO[C@]4(O)C(=O)OC)[C@@H]32 [Azadirachtin, azadirachtin]?
A: mortality at 1 ppm [2]: 22.7%; mortality at 2 ppm [3]: 28.9%

Q: Which mortality at 1 ppm [4] does the source give for CC(C)c1cc(Oc2ccccc2)cc(C(C)C)c1NC(=S)NC(C)(C)C [Diafenthiuron, diafenthiuron] here?
A: The mortality at 1 ppm was 22.7%.

Q: And the mortality at 5 ppm (Aphis gossypii, foliar)?
A: Its mortality at 5 ppm is 26%.

Q: What about the “Mortality Observed” value (alone, 5 ppm ai) of the same compound?
A: The value was 26.22%.

Q: With N#CCNC(=O)c1cnccc1C(F)(F)F [Flonicamid, flonicamid] as the compound, how does the “Mortality Observed” value (alone, 1 ppm ai) read?
A: Its value is 31.4%.

Q: What about the “Mortality Observed” value (alone, 2 ppm ai) of the same compound?
A: The value was 27.2%.

Q: CC(=O)N1C(=O)N(NCc2cccnc2)Cc2cc(C(F)(C(F)(F)F)C(F)(F)F)ccc21 [Pyrifluquinazon, pyrifluquinazon] was tested. Which mortality at 0.08 ppm (Aphis gossypii, foliar, read-out: Mortality Observed, alone, 0.08 ppm ai) did it give?
A: The mortality at 0.08 ppm was 24.9%.

Q: And the mortality at 0.5 ppm (Aphis gossypii, foliar, read-out: Mortality Observed, alone, 0.5 ppm ai)?
A: The mortality at 0.5 ppm was 42.7%.

Q: What about the mortality at 0.8 ppm (Aphis gossypii, foliar) of the same compound?
A: Its mortality at 0.8 ppm is 47.6%.

Q: C[C@]1(COC(=O)C2CC2)[C@@H]2C[C@H](O)[C@@]3(C)Oc4cc(-c5cccnc5)oc(=O)c4[C@H](O)[C@@H]3[C@@]2(C)CC[C@@H]1OC(=O)C1CC1 [Afidopyropen, afidopyropen] was tested. Which mortality at 0.02 ppm (Aphis gossypii, foliar, read-out: Mortality Observed, alone, 0.02 ppm ai) did it give?
A: The mortality at 0.02 ppm was 25.3%.

Q: And the mortality at 1 ppm [4]?
A: Its mortality at 1 ppm is 37.3%.

Q: And the mortality at 2 ppm (Aphis gossypii, foliar, read-out: Mortality Observed, alone, 2 ppm ai)?
A: The mortality at 2 ppm was 49.4%.

Q: Which mortality at 0.2 ppm [1] does the source give for CCc1nn(C)c(C(=O)NCc2ccc(Oc3ccc(C)cc3)cc2)c1Cl [Tolfenpyrad, tolfenpyrad] here?
A: Its mortality at 0.2 ppm is 15.9%.

Q: And the mortality at 1 ppm [2]?
A: The mortality at 1 ppm was 39.3%.

Q: CC1(C)[C@H](C(=O)O[C@H](C#N)c2cccc(Oc3ccccc3)c2)[C@@H]1/C=C(\Cl)C(F)(F)F (racemic) [Lambda cyhalothrin, lambda-cyhalothrin] was tested. Which mortality at 0.2 ppm [1] did it give?
A: The mortality at 0.2 ppm was 32.1%.

Q: And the mortality at 0.4 ppm (Aphis gossypii, foliar, alone, 0.4 ppm ai, read-out: Mortality Observed)?
A: Its mortality at 0.4 ppm is 37.6%.

Q: Which results are given for CCOC(=O)OC1=C(c2cc(C)ccc2C)C(=O)N[C@]12CC[C@@H](OC)CC2 [Spirotetramat, spirotetramat]?
A: mortality at 1 ppm [2]: 23.5%; mortality at 2 ppm [3]: 44.4%

Q: CC(C)[C@@H](Nc1ccc(C(F)(F)F)cc1Cl)C(=O)OC(C#N)c1cccc(Oc2ccccc2)c1 (stereo partly shown) [Tau fluvalinate, tau-fluvalinate] was tested. Which mortality at 0.1 ppm [1] did it give?
A: Its mortality at 0.1 ppm is 28.1%.

Q: What about the mortality at 0.2 ppm [1] of the same compound?
A: Its mortality at 0.2 ppm is 47.9%.
